Assay results from patent publication US5843954A, “Camptothecin derivatives, preparations thereof and antitumor agents” (priority 1994, dated 1998).
Values after ≈ are worked out from the molar mass of the structure shown.

tested on: not listed separately; assay: Water solubility; assay type: physicochemical; conditions: not given

| Compound | solubility [mg/mL] |
| --- | --- |
| CCC(=O)OCc1c([C@@](O)(CC)C(=O)NCCN(C)C)cc2n(c1=O)Cc1c-2nc2cc(F)c(C)cc2c1CC [Compound C23] | 20 (≈ 36.2 mM) |
| CCc1c2c(nc3ccc(C)cc13)-c1cc([C@@](O)(CC)C(=O)NCCN(C)C)c(COC(=O)CCSC)c(=O)n1C2 [Compound C7] | 21 (≈ 36.2 mM) |
| CCc1c2c(nc3cc(F)ccc13)-c1cc([C@@](O)(CC)C(=O)NCCN(C)C)c(COC(=O)CCSC)c(=O)n1C2 [Compound C10] | > 62 |
| CCCC(=O)OCc1c([C@@](O)(CC)C(=O)NCCN(C)C)cc2n(c1=O)Cc1c-2nc2ccc(O)cc2c1CC [Compound C30] | > 58 |
| CCc1c2c(nc3cc(Cl)ccc13)-c1cc([C@@](O)(CC)C(=O)NCCN(C)C)c(COC(=O)CCSC)c(=O)n1C2 [Compound C12] | > 64 |
| CCC(=O)OCc1c([C@@](O)(CC)C(=O)NCCN(C)C)cc2n(c1=O)Cc1c-2nc2cc(F)c(F)cc2c1CC [Compound C13] | > 59 |
| CCc1c2c(nc3ccc(Cl)cc13)-c1cc([C@@](O)(CC)C(=O)NCCN(C)C)c(COC(=O)CCSC)c(=O)n1C2 [Compound C5] | 21 (≈ 34.9 mM) |

tested on: not listed separately; assay: Antitumor activity for L1210 (life prolonging effect, mouse leukemia transplanted intraperitoneally); assay type: in vivo; conditions: mouse, in vivo, ip; numerator of therapeutic index; i.p. total dose; read-out: Maximum tolerable dose
Protocol: (§1) 5×10^5 cells of mouse leukemia L1210 were transplanted intraperitoneally to a group of six female CDF1 mice (7 weeks old, body weight 17-19 g). The test compound was administered intraperitoneally on day 1, 5 and 9 and its life prolonging effect was observed.
(§2) In a case of the administration of a test compound as an acid addition salt the test compound was dissolved in water. The total administration amount was 1.56 mg/kg-400 mg/kg. The antitumor activity was expressed by the value (T/C%) wherein T denotes the mean survival days in the drug administered group and C denotes those in the non administered group. In case of equal to or more than 125% the drug is considered to be effective.

| Compound | MTD [mg/kg] |
| --- | --- |
| CCC(=O)OCc1c([C@@](O)(CC)C(=O)NCCN(C)C)cc2n(c1=O)Cc1c-2nc2cc(F)c(C)cc2c1CC [Compound C23] | 12.5 |
| CCc1c2c(nc3ccc(C)cc13)-c1cc([C@@](O)(CC)C(=O)NCCN(C)C)c(COC(=O)CCSC)c(=O)n1C2 [Compound C7] | 100 |
| CCc1c2c(nc3cc(F)ccc13)-c1cc([C@@](O)(CC)C(=O)NCCN(C)C)c(COC(=O)CCSC)c(=O)n1C2 [Compound C10] | 12.5 |
| CCCC(=O)OCc1c([C@@](O)(CC)C(=O)NCCN(C)C)cc2n(c1=O)Cc1c-2nc2ccc(O)cc2c1CC [Compound C30] | 200 |
| CCc1c2c(nc3cc(Cl)ccc13)-c1cc([C@@](O)(CC)C(=O)NCCN(C)C)c(COC(=O)CCSC)c(=O)n1C2 [Compound C12] | 25 |
| CCc1c2c(nc3ccc(Cl)cc13)-c1cc([C@@](O)(CC)C(=O)NCCN(C)C)c(COC(=O)CCSC)c(=O)n1C2 [Compound C5] | 6.25 |

tested on: mouse leukemia L1210; assay: as above; assay type: in vivo; conditions: Mus musculus, L1210, ip; denominator of therapeutic index; i.p. total dose; read-out: Minimum effective dose
Protocol: as §1, §2

| Compound | minimal effective dose [mg/kg] |
| --- | --- |
| CCC(=O)OCc1c([C@@](O)(CC)C(=O)NCCN(C)C)cc2n(c1=O)Cc1c-2nc2cc(F)c(C)cc2c1CC [Compound C23] | < 1.56 |
| CCc1c2c(nc3ccc(C)cc13)-c1cc([C@@](O)(CC)C(=O)NCCN(C)C)c(COC(=O)CCSC)c(=O)n1C2 [Compound C7] | 3.13 |
| CCc1c2c(nc3cc(F)ccc13)-c1cc([C@@](O)(CC)C(=O)NCCN(C)C)c(COC(=O)CCSC)c(=O)n1C2 [Compound C10] | 1.56 |
| CCCC(=O)OCc1c([C@@](O)(CC)C(=O)NCCN(C)C)cc2n(c1=O)Cc1c-2nc2ccc(O)cc2c1CC [Compound C30] | 6.25 |
| CCc1c2c(nc3cc(Cl)ccc13)-c1cc([C@@](O)(CC)C(=O)NCCN(C)C)c(COC(=O)CCSC)c(=O)n1C2 [Compound C12] | 6.25 |
| CCc1c2c(nc3ccc(Cl)cc13)-c1cc([C@@](O)(CC)C(=O)NCCN(C)C)c(COC(=O)CCSC)c(=O)n1C2 [Compound C5] | < 1.56 |

same assay, conditions: at optimum dose; group of six female CDF1 mice

| Compound | 40-day survivors |
| --- | --- |
| CCC(=O)OCc1c([C@@](O)(CC)C(=O)NCCN(C)C)cc2n(c1=O)Cc1c-2nc2cc(F)c(C)cc2c1CC [Compound C23] | 0/6 |
| CCc1c2c(nc3ccc(C)cc13)-c1cc([C@@](O)(CC)C(=O)NCCN(C)C)c(COC(=O)CCSC)c(=O)n1C2 [Compound C7] | 5/6 |
| CCc1c2c(nc3cc(F)ccc13)-c1cc([C@@](O)(CC)C(=O)NCCN(C)C)c(COC(=O)CCSC)c(=O)n1C2 [Compound C10] | 1/6 |
| CCCC(=O)OCc1c([C@@](O)(CC)C(=O)NCCN(C)C)cc2n(c1=O)Cc1c-2nc2ccc(O)cc2c1CC [Compound C30] | 0/6 |
| CCc1c2c(nc3cc(Cl)ccc13)-c1cc([C@@](O)(CC)C(=O)NCCN(C)C)c(COC(=O)CCSC)c(=O)n1C2 [Compound C12] | 1/6 |
| CCC(=O)OCc1c([C@@](O)(CC)C(=O)NCCN(C)C)cc2n(c1=O)Cc1c-2nc2cc(F)c(F)cc2c1CC [Compound C13] | 0/6 |
| CCc1c2c(nc3ccc(Cl)cc13)-c1cc([C@@](O)(CC)C(=O)NCCN(C)C)c(COC(=O)CCSC)c(=O)n1C2 [Compound C5] | 3/6 |

same assay, conditions: i.p., L1210, CDF1 mice

| Compound | Therapeutic Index (Maximum tolerable dose/Minimum effective dose) |
| --- | --- |
| CCC(=O)OCc1c([C@@](O)(CC)C(=O)NCCN(C)C)cc2n(c1=O)Cc1c-2nc2cc(F)c(C)cc2c1CC [Compound C23] | > 8 |
| CCc1c2c(nc3ccc(C)cc13)-c1cc([C@@](O)(CC)C(=O)NCCN(C)C)c(COC(=O)CCSC)c(=O)n1C2 [Compound C7] | 32 |
| CCc1c2c(nc3cc(F)ccc13)-c1cc([C@@](O)(CC)C(=O)NCCN(C)C)c(COC(=O)CCSC)c(=O)n1C2 [Compound C10] | 8 |
| CCCC(=O)OCc1c([C@@](O)(CC)C(=O)NCCN(C)C)cc2n(c1=O)Cc1c-2nc2ccc(O)cc2c1CC [Compound C30] | 32 |
| CCc1c2c(nc3ccc(Cl)cc13)-c1cc([C@@](O)(CC)C(=O)NCCN(C)C)c(COC(=O)CCSC)c(=O)n1C2 [Compound C5] | > 4 |

tested on: not listed separately; assay: Acute toxicity test by intraperitoneal administration; conditions: mouse, in vivo, ip, ICR male mice, 1 week observation
Protocol: Acute toxicity test was conducted by intraperitoneal administration using a group of twenty ICR male mice (4 weeks old, body weight around 20 g).
LD50 value was calculated by the Richfield-Willcokson method from a lethal ratio observing the fate of mice during 1 week after administration of a test compound.

| Compound | LD50 at 168 h [mg/kg] |
| --- | --- |
| CCC(=O)OCc1c([C@@](O)(CC)C(=O)NCCN(C)C)cc2n(c1=O)Cc1c-2nc2cc(F)c(C)cc2c1CC [Compound C23] | 184 |
| CCc1c2c(nc3ccc(C)cc13)-c1cc([C@@](O)(CC)C(=O)NCCN(C)C)c(COC(=O)CCSC)c(=O)n1C2 [Compound C7] | 234 |
| CCc1c2c(nc3cc(F)ccc13)-c1cc([C@@](O)(CC)C(=O)NCCN(C)C)c(COC(=O)CCSC)c(=O)n1C2 [Compound C10] | 146 |
| CCCC(=O)OCc1c([C@@](O)(CC)C(=O)NCCN(C)C)cc2n(c1=O)Cc1c-2nc2ccc(O)cc2c1CC [Compound C30] | 362 |
| CCc1c2c(nc3cc(Cl)ccc13)-c1cc([C@@](O)(CC)C(=O)NCCN(C)C)c(COC(=O)CCSC)c(=O)n1C2 [Compound C12] | 284 |
| CCC(=O)OCc1c([C@@](O)(CC)C(=O)NCCN(C)C)cc2n(c1=O)Cc1c-2nc2cc(F)c(F)cc2c1CC [Compound C13] | 67.6 |
| CCc1c2c(nc3ccc(Cl)cc13)-c1cc([C@@](O)(CC)C(=O)NCCN(C)C)c(COC(=O)CCSC)c(=O)n1C2 [Compound C5] | 168 |
